Laboratory results as given in paper PMC5437225, “Picomolar, selective, and subtype-specific small-molecule inhibition of TRPC1/4/5 channels” (The Journal of Biological Chemistry, 2017).

How the values were obtained:
TRPC5 = biological target: T1, TRPC5 (Homo sapiens, UniProt Q9UL62); test: fura-2 Ca2+ entry, FlexStation 96-well; type: cell-based; conditions: activated by 10 nM (-)-englerin A; pH 7.4; room temperature; 30 min preincubation; read-out: C31 IC50
T1 construct: homomer
T1 sequence (Q9UL62 1-973): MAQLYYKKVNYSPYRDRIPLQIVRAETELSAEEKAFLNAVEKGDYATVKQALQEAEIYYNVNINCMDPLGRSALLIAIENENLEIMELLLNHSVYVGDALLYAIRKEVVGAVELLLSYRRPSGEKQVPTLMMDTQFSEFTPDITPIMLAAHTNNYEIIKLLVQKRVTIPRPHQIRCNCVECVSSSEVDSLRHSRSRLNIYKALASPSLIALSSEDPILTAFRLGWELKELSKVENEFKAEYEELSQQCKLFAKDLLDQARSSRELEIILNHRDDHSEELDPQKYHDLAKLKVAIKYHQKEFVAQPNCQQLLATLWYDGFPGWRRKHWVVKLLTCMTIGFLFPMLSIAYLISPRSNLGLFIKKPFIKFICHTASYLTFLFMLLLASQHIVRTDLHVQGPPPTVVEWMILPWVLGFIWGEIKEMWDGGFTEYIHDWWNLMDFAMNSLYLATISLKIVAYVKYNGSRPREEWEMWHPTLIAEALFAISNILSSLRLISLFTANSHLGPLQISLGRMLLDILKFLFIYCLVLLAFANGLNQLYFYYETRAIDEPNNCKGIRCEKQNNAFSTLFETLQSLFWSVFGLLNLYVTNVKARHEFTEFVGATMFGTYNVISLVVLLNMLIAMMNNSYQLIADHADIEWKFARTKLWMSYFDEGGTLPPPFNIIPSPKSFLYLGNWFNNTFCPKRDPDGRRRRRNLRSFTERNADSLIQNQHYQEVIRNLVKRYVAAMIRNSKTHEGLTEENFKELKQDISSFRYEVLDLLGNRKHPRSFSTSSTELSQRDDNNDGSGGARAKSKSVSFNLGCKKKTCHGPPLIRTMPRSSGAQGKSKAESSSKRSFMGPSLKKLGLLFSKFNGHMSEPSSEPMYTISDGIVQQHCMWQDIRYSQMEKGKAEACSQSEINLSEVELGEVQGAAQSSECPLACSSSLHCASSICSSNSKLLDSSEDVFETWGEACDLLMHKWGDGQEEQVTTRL
Source text: fura-2 Ca2+ entry, FlexStation 96-well on TRPC5

TRPC5-TRPC1 concatemer = biological target: T2, TRPC5-TRPC1 concatemer (Homo sapiens, UniProt P48995+Q9UL62); test: fura-2 Ca2+ entry, FlexStation 96-well; type: cell-based; conditions: read-out: C31 IC50
T2 construct: concatemer of TRPC5 with TRPC1
Source text: fura-2 Ca2+ entry, FlexStation 96-well on TRPC5-TRPC1 concatemer

T2 sequence (P48995 whole entry, one chain of several): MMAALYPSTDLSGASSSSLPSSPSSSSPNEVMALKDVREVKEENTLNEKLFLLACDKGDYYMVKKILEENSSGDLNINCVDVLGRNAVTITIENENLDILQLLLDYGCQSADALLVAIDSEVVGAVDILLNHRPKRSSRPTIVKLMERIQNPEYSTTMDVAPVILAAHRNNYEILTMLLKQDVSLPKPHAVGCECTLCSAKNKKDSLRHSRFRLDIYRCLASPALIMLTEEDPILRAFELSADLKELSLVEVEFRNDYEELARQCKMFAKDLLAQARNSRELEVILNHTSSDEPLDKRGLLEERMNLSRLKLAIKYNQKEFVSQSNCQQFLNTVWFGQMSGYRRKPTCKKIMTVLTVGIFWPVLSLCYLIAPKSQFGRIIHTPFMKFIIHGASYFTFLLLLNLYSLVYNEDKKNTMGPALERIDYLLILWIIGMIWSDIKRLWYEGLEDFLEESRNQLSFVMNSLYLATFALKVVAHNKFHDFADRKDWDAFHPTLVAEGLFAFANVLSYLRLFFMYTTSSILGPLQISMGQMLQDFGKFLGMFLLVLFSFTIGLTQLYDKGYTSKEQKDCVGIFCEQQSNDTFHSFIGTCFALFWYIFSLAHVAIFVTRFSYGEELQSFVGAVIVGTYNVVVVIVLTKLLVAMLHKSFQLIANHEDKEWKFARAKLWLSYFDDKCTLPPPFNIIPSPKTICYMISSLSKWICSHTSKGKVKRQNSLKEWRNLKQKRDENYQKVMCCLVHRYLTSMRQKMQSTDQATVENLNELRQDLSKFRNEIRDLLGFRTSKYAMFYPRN

Q: How did the IC50 (TRPC5) turn out when `Cn1c(=O)n(CCCO)c(=O)c2c1nc(Oc1cccc(OC(F)(F)F)c1)n2Cc1ccc(Cl)cc1` [compound 31, C31] was run?
A: Its IC50 is 1.3 nM.

Q: What about the IC50 (TRPC5-TRPC1 concatemer) of the same compound?
A: The IC50 was 0.199 nM.
